From article PMC11742080, “Decavanadate Compound Displays In Vitro and In Vivo Antitumor Effect on Melanoma Models” (Bioinorganic Chemistry and Applications, 2025) come the findings set out here.

Test [1] has as its system IGR39 human melanoma cells. In words: Cell adhesion assay (collagen, fibronectin, poly-L-lysine). It counts as cell-based. As for the experimental part: Adhesion assays were performed as previously described by Morjen et al.. Briefly, flat-bottom 96-well microtiter plates were coated for 2 h at 37°C with fibronectin or collagen at 10 μg/mL, as extracellular matrix (ECM) proteins, or poly-L-lysine at 50 μg/mL, as a nonspecific attachment substrate. Plates were then washed with PBS and blocked by BSA. IGR39 cells were harvested and resuspended in DMEM, in the presence or absence (CTR) of the tested molecule. After incubation for 30 min at room temperature, cells were added to coated wells in a volume of 50 μL (50,000 cells) and allowed to adhere to the substrate for 1 h at 37°C. Unattached cells were removed by gently washing three times with an adhesion buffer. Residual attached cells were fixed by 1% glutaraldehyde, stained by 0.1% crystal violet, and lysed with 1% SDS. The absorbance was then measured at 600 nm by a microplate reader.

The subject of test [2] is IGR39 human melanoma cells. In words: MTT cell viability assay, IGR39. It counts as cell-based. Here is the method: The MTT assay was first described as a sensitive, quantitative, and reliable colorimetric assay to measure the viability, proliferation, and activation of cells. Cell viability was assessed at 24 and 72 h of treatment to evaluate cytotoxicity and the effect on cell proliferation of the decavanadate compound, respectively. The concentrations of the decavanadate compound have been determined by weighing the compound in its crystal form and then solubilizing it in distilled water.
All cell lines were seeded in 96-well plates (Nunc, Roskilde, Denmark) at a density of 10^4 cells per well and were incubated overnight, before treatment with different concentrations of the decavanadate compound. After 24 or 72 h of treatment, fresh media solution containing MTT at 0.5 mg/mL was added to cells and incubated for 3 h at 37°C. The formed formazan crystals were then dissolved in DMSO, and the absorbance was measured at 560 nm using a BioTek EON Microplate Spectrophotometer (Fisher Scientific). Cell viability was expressed as a percentage of the viable cell number of the untreated cells (control [CTR]).
The concentration of the decavanadate compound required for 50% growth inhibition (IC50 value) was estimated as resulting in a 50% decrease in absorbance, compared to the CTR.

The subject of test [3] is DMBA/croton oil-induced skin lesions in Swiss albino mice. In words: Chemical-induced (DMBA/croton oil) lesion model in mice. The conditions noted are these: cotreatment, 2.5 mg/kg s.c. It is filed as in vivo. As for the experimental part: Two days before the beginning of the experiment, we selected 32 male Swiss albino mice and clipped the hair on their backs in a 2 × 2 cm^2 area. The design of the experiment was performed as reported by Vähätupa et al. (Figure S1). The animals were randomly divided into […] (8 animals in each group): • i. CTR− group: represented the negative CTR group, where mice received 100 μL of acetone only. • ii. CTR+ group: served as the positive CTR group, where mice were treated […] with a single dose of DMBA (50 μg/100 μL acetone) on the shaven area on their backs. Seven days later, croton oil (50 μL/100 μL acetone) was applied twice a week until the end of the experiment (6 weeks). • iii. CT group (cotreatment group): animals received a single dose of DMBA (50 μg/100 μL acetone) on the shaven area on their backs. Seven days later, croton oil (50 μL/100 μL acetone) was applied twice. Then, mice received croton oil and 2.5 mg/kg of the decavanadate compound (dissolved in PBS) by subcutaneous injection on their backs. The Mg2Na2V10O28·20H2O compound was given to animals 15 min after each croton oil application from the third week until the sixth week (the end of the protocol).

Test [4] deals with B16-F10 allografted C57BL/6 mice. Nature of the test: B16-F10 melanoma allograft model in mice. It is filed as in vivo. Here is the method:
The syngeneic transplantation model of melanoma, developed in this study, has been widely used for preclinical testing and offers the advantages of relative ease of use, fast turnaround time, and low cost. A total of 30 male C57BL/6 strain mice were previously adapted to animal facility conditions. The design of the experiment was performed as represented in Figure S2. At the start of the experiment, the backs of the mice were shaved. The mice were divided into four groups: • i. CTR− group: negative CTR group containing 6 mice. This group was injected with a solution of PBS by the subcutaneous route in the dorsal region. • ii. CTR+ group: positive CTR group containing 8 mice. In this group, the mice were subcutaneously injected once with 10^5 B16-F10 cells in the dorsal region at the beginning of the experiment. Four mice were sacrificed after 21 days, and the other 4 mice were sacrificed at the end of the experiment after 31 days. • iii. Cotreatment (CT) group: CT group containing 8 mice. This group was subcutaneously injected with 10^5 B16-F10 cells in the dorsal region and injected simultaneously with 2.5 mg/kg of decavanadate (Mg2Na2V10O28·20H2O), subcutaneously for 21 days of the experiment. All the mice were sacrificed after 21 days. • iv. Post-treatment (PT) group: PT group containing 8 mice. This group was subcutaneously injected with 10^5 B16-F10 cells in the dorsal region. After 21 days, each mouse of this group received a dose of 2.5 mg/kg of decavanadate (Mg2Na2V10O28·20H2O), as a treatment for 10 days. For this group, animals were sacrificed on the 31st day. The experimental design scheme is illustrated in Figure S2.

Take “dimagnesium disodium decavanadate icosahydrate [Mg2Na2V10O28·20H2O]”: the “Inhibition of adhesion of IGR39 cells on fibronectin” value in test [1] (5 μg/mL) is given as 47%. Further, the “IC50, IGR39 cell attachment to collagen” value in test [1] (collagen 10 μg/mL coating, 30 min pretreatment, 1 h adhesion) was 3.78 µg/mL. In addition, the IC50 in test [1] (collagen 10 μg/mL coating, 30 min pretreatment, 1 h adhesion, read-out: IC50, IGR39 cell attachment to collagen) is 2.67 µM; in test [2] (IGR39, 24 h treatment), 18 µM; in test [2] (IGR39, 72 h treatment), 5.2 µM. Moreover, the “Reduction of IGR39 cell attachment to collagen” value in test [1] (highest concentration 5 μg/mL (3.5 μM)) is listed as 60%. Besides, the “Effect on adhesion of IGR39 cells to poly-L-lysine” value in test [1] (up to 5 μg/mL, nonspecific substrate) is reported as “no effect”. The “Skin histology (dermal inflammatory infiltrate)” value in test [3] was “attenuation of this inflammatory state”. For the same substance, in test [3] (6-week protocol), the “Mortality and behavior in DMBA/croton oil-treated mice” value is recorded as “neither mortality nor changes in the behavior”. Moreover, the “Inhibition of tumor development” value in test [4] (2.5 mg/kg (50 μg), versus nontreated allografted mice) was determined as 70%. In addition, in test [4] (cotreated, 2.5 mg/kg, compared to CTR− group), the “Behavior of allografted mice” value is “no change in the behavior”. In addition, in test [4] (cotreatment (CT) group, 2.5 mg/kg s.c. for 21 days), the “Tumor appearance at day 21” value is recorded as “no skin changes”. Besides, the “Skin histology, cotreated mice” value in test [4] (cotreatment (CT) group, 2.5 mg/kg, day 21) is “disappearance of melanoma”. Moreover, the “Average size of the tumor” value in test [4] (post-treatment (PT) group, 2.5 mg/kg for 10 days from day 21, day 31) amounted to 8.2 mm. The “Skin histology, post-treated mice” value in test [4] (post-treatment (PT) group, 2.5 mg/kg, day 31) was “appearance of dermal melanoma associated with invasive nests of atypical discohesive melanocytes and dusty pigmentation”.
